One experiment deals with S. Typhimurium ATCC14028. Briefly: Bioscreen assay: influence on planktonic growth curve. It is filed as cell-based, Salmonella Typhimurium. More on the design: key: x: no influence on the planktonic growth at the IC50 for biofilm inhibition; ∘: planktonic growth is retarded at the IC50 for biofilm inhibition. The conditions noted are these: planktonic growth at the IC50 for biofilm inhibition, 25° C. The source says:
Some of the tested compounds show a concentration range in which biofilm formation is inhibited but no effect on planktonic growth is observed. These compounds are particularly interesting for prevention of biofilm formation since the development of resistance against these compounds is less likely. Table 8 indicates whether the different compounds have an effect on the planktonic growth of the bacteria at the IC50 for biofilm inhibition. To construct Table 8, the effect of the tested compounds on the growth curve of the bacteria was determined at a concentration equal to the IC50 for biofilm inhibition, by using the Bioscreen system available from Oy Growth Curves Ab Ltd). The Bioscreen device from Oy Growth Curves Ab Ltd was used for measuring the influence of the chemical compounds on the planktonic growth of Salmonella Typhimurium and Pseudomonas aeruginosa. The Bioscreen is a computer controlled incubator/reader/shaker that uses 10×10 well microtiter plates and measures light absorbance of each well at a specified wave length in function of time. An overnight culture of S. […] The broth used was TSB 1/20 for the experiments at 16° C. and 25° C. For experiments at 37° C. CFA medium was used for S. […] As a control 3 μl of the appropriate solvent (DMSO or EtOH) was also added to the plate in 3- or 4-fold. The microtiter plate was incubated in the Bioscreen device at 16° C., 25° C. or 37° C. for at least 36 hours, with continious medium shaking. The absorbance of each well was measured at 600 nm each 15 minutes. Excel was used to generate the growth curves for treated the treated wells and the untreated control wells. Some of the compounds show a concentration range in which biofilm formation is inhibited but no effect on the planktonic growth is observed. Table 14 indicates if the different compounds have an effect on the planktonic growth of the bacteria at the IC50 for biofilm inhibition. To construct this table the effect of the compounds on the growth curve of the bacteria was determined at a concentration equal to the IC50 for biofilm inhibtion, by using the Bioscreen system from Oy Growth Curves Ab Ltd.

Experiment [1] concerns Salmonella Typhimurium ATCC 14028. Briefly: Antibacterial activity: growth inhibition, OD600 after 24 h (GIC50). It is filed as cell-based. The conditions noted are these: 25° C. The protocol:
Evaluation of antibacterial-inhibitory activity of some substituted 2-amino-1H-imidazoles of the invention was carried out by diluting an overnight culture of Salmonella Typhimurium ATCC 14028 into a liquid medium. 200 μl of the diluted overnight culture was added to each well of a microtiter plate together with different concentrations of the test compound (1/2 dilution series of the compound). After an incubation of 24 hours the optical density at 600 nm of each well was determined with a microtiter plate reader.
Starting from a 40 mM stock solution of each compound in DMSO, two-fold serial dilutions in 100 μl liquid broth per well were prepared in dublicate in sterile transparant microtiter plates. The broth used was TSB 1/20 for measurements at 25° C. and CFA (in case of Salmonella Typhimurium) and LBNS (in case of Pseudomonas aeruginosa) for measurements at 37° C. Subsequently an overnight culture of the bacteria (S. Typhimurium ATCC14028 or P. aeruginosa PA14) was diluted 1/200 into the corresponding liquid broth and 100 μl was added to each well of the microtiterplate resulting in a total amout of 200 μl medium per well. After an incubation of 24 hours the optical density at 600 nm of each well was determined with a microtiter plate reader (VERSAmax, Molecular Devices).
Evaluation of antibacterial-inhibitory activity of some substituted imidazo[1,2-a]pyrimidinium bromide salts of the invention was carried out by diluting an overnight culture of Salmonella Typhimurium ATCC14028 or Pseudomonas aeruginosa PA141/200 into liquid medium. 200 μl of the diluted overnight culture was added to each well of a microtiterplate together with different concentrations of the test compound (1/2 dilution series of the compound). After an incubation of 24 hours the optical density at 600 nm of each well was determined with a microtiter plate reader.

For `CCCCCCN1c2nccc[n+]2CC1(O)c1ccc([N+](=O)[O-])cc1.[Br-]` (stereo not shown) [Compound 34], the Influence on growth result in the experiment with S. Typhimurium ATCC14028 is given as “x”. In experiment [1], the IC50 (usually the point on the concentration scale where inhibition reaches its midpoint) lay within 100 to 200 µM.
On the same counts, the results for `OC1(c2ccc(Cl)cc2)C[n+]2cccnc2N1C1CCCCC1.[Br-]` (stereo not shown) [Compound 64] are “x” and 50 to 100 µM.
On to `O=[N+]([O-])c1ccc(C2(O)C[n+]3cccnc3N2C2CCCCCCCCCCC2)cc1.[Br-]` (stereo not shown) [Compound 69], for which the IC50 in experiment [1] was below 6 µM.
With `OC1(c2ccc(I)cc2)C[n+]2cccnc2N1Cc1ccccc1.[Br-]` (stereo not shown) [Compound 73], the Influence on growth entry with S. Typhimurium ATCC14028 is “x”. The IC50 in experiment [1] (listed as R1=Benzyl, R3=4-I—Ph, R4=H) was 50 µM; in experiment [1] (listed as R1=benzyl, R3=4-I—ph, R4=H), 50 to 100 µM.
Consider `OC1(c2ccc(-c3ccccc3)cc2)C[n+]2cccnc2N1C1CCCC1.[Br-]` (stereo not shown) [R1=Cyclopentyl, R3=4-biphenylyl, R4=H, 1-cyclopentyl-2-hydroxy-2-(4-biphenylyl)-2,3-dihydro-1H-imidazo[1,2-a]pyrimidin-4-ium bromide], for which, in the experiment with S. Typhimurium ATCC14028, the Influence on growth result is reported as “x”. The IC50 in experiment [1] (Salmonella enterica) was 25 to 50 µM.

These data come from patent publication US20130029981A1, “COMPOUNDS, COMPOSITIONS, AND METHODS FOR CONTROLLING BIOFILMS” (Katholieke Universiteit Leuven, priority 2009, published 2013).
